Laboratory results from patent US8664391B2, “Amide compounds as boosters of antivirals” (Janssen R&D Ireland Ltd, priority 2008, dated 2014).
Read-outs that look alike come from different tables or passages of the source.

How the values were obtained:
CYP1A2 = molecular target: T1, CYP1A2 (Homo sapiens, UniProt P05177); assay: CYP450 inhibition, fluorescent substrate assay, CYP1A2; assay type: biochemical; details: substrate CEC 5 μM, read-out: 1A2-CEC % inh.
T1 construct: host or cells: E. coli
T1 sequence (P05177 1-516): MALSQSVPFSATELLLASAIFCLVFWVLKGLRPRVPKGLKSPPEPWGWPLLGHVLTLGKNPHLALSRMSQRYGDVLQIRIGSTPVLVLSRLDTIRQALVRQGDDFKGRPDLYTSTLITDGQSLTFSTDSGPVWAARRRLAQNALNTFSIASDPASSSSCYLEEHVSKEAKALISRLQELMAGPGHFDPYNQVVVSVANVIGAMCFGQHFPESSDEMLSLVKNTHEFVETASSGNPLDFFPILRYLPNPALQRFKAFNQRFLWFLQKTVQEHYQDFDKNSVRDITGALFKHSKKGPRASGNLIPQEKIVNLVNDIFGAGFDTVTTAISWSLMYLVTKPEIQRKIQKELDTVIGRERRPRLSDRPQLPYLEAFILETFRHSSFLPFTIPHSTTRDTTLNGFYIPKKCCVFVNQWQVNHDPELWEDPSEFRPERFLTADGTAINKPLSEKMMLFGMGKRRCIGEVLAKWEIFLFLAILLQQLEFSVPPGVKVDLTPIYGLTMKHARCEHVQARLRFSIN
Protocol: (§1) Assay 4: CYP450 Inhibition […] This fluorescent molecule was measured using a fluorescent plate reader (Victor2 (Wallac) or Fluoroskan (Labsystems)). Compounds inhibiting the enzymatic reaction will result in a decrease of fluorescent signal. CYP P450 enzymes were prepared in house or commercially bought and stored at −80° C. [table] The assay was performed in black 96 well Costar plates. Test compounds were added to a CYP P450 enzyme solution in the presence of an NADPH generating system. After 5 min of preincubation at 37° C., the freshly prepared, phosphate buffered (pH 7.4) substrate solution was added. Known CYP P450 inhibitors were used as positive controls, negative controls were run without CYP P450 enzyme. For final reaction mixture concentrations, see Table 6. […] Then, the reaction was stopped by the addition of 200 μl acetonitrile, and the fluorescent signal was detected. [table] […] Inhibition of TMC114 Metabolisation

[1] = test system: wild-type HIV-1 IIIB strain; assay: Antiviral activity in MT4 LTR-EGFP cellular assay; assay type: cell-based; details: read-out: Antiviral Activity IIIB pEC50 (converted)
Protocol: (§2) Assay 1 &2: Antiviral Activity/Toxicity
The compounds of the present invention were tested for antiviral activity in a cellular assay, which was performed according to the following procedure.
The human T-cell line MT4 is engineered with Green Fluorescent Protein (GFP) and an HIV-specific promoter, HIV-1 long terminal repeat (LTR). This cell line is designated MT4 LTR-EGFP, and can be used for the in vitro evaluation of anti-HIV activity of investigational compounds. In HIV-1 infected cells, the Tat protein is produced which upregulates the LTR promotor and finally leads to stimulation of the GFP reporter production, allowing measuring ongoing HIV-infection fluorometrically.
(§3) The ratio of CC50 to EC50 is defined as the selectivity index (SI) and is an indication of the selectivity of the anti-HIV activity of the inhibitor. The ultimate monitoring of HIV-1 infection and cytotoxicity is done using a scanning microscope. Image analysis allows very sensitive detection of viral infection. Measurements are done before cell necrosis, which usually takes place about five days after infection, in particular measurements are performed three days after infection.
A pEC50 value corresponds to −log10(EC50). A pCC50 value corresponds to −log10(CC50).

[2] = Cytotoxicity in mock-infected MT4 CMV-EGFP cells; assay type: cell-based; details: human, pCC50 = -log10(CC50), read-out: Toxicity MT4 pCC50 (converted)
Source text: as §2
Analogously, MT4 cells are engineered with GFP and the constitutional cytomegalovirus (CMV) promotor. This cell line is designated MT4 CMV-EGFP, and can be used for the in vitro evaluation of cytotoxicity of investigational compounds. In this cell line, GFP levels are comparably to those of infected MT4 LTR-EGFP cells. Cytotoxic investigational compounds reduce GFP levels of mock-infected MT4 CMV-EGFP cells.
as §3, with “Effective concentration values such as 50% effective concentration (EC50) can be determined and are usually expressed in μM. An EC50 value is defined as the concentration of test compound that reduces the fluorescence of HIV-infected cells by 50%. The 50% cytotoxic concentration (CC50 in μM) is defined as the concentration of test compound that reduces fluorescence of the mock-infected cells by 50%. The ratio” for “The ratio”
Table 2 lists pEC50 values against the wild-type HIV-1 IIIB strain as well as pCC50 values for a selected number of compounds of the invention. A pEC50 value corresponds to −log10(EC50). A pCC50 value corresponds to −log10(CC50).

CYP2C9 = CYP2C9 (Homo sapiens, UniProt P11712); assay: CYP450 inhibition, fluorescent substrate assay, CYP2C9; assay type: biochemical
CYP2C9, sequence (P11712 whole entry): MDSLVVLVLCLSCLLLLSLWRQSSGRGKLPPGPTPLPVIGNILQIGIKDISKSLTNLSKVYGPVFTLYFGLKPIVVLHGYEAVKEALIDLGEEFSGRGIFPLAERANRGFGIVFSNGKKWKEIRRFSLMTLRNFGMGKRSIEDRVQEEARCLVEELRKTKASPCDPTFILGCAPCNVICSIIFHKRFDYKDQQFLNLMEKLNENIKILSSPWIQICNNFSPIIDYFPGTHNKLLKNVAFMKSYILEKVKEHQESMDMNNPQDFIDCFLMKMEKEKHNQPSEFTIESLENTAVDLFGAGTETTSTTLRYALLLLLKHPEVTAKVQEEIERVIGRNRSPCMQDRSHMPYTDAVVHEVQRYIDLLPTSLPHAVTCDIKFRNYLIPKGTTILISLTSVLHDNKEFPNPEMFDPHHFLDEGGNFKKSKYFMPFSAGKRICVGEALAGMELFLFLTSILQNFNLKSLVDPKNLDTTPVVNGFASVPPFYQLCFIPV
Protocol: as §1

CYP2C19 = molecular target: T2, CYP2C19 (Homo sapiens, UniProt P33261); assay: CYP450 inhibition, fluorescent substrate assay, CYP2C19; assay type: biochemical; details: substrate CEC 25 μM, read-out: 2C19-CEC % inh.
T2 construct: host or cells: E. coli
T2 sequence (P33261 whole entry): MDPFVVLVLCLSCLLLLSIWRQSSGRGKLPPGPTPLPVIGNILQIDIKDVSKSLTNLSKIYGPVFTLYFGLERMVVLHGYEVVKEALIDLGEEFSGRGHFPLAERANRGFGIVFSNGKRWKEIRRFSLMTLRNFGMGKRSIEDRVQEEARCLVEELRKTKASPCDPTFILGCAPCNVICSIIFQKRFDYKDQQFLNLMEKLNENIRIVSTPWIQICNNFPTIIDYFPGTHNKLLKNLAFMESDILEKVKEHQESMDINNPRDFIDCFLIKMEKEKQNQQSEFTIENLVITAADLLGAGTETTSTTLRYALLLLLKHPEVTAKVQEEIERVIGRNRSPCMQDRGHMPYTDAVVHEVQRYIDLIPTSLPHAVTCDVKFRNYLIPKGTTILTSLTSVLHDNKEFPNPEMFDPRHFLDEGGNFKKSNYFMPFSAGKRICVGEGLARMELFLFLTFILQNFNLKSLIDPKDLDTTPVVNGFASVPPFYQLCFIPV
Protocol: as §1

CYP2D6 = molecular target: T3, CYP2D6 (Homo sapiens, UniProt P10635); assay: CYP450 inhibition, fluorescent substrate assay, CYP2D6; assay type: biochemical; details: substrate AMMC 3 μM, read-out: 2D6-AMMC % inh.
T3 construct: host or cells: E. coli
T3 sequence (P10635 whole entry): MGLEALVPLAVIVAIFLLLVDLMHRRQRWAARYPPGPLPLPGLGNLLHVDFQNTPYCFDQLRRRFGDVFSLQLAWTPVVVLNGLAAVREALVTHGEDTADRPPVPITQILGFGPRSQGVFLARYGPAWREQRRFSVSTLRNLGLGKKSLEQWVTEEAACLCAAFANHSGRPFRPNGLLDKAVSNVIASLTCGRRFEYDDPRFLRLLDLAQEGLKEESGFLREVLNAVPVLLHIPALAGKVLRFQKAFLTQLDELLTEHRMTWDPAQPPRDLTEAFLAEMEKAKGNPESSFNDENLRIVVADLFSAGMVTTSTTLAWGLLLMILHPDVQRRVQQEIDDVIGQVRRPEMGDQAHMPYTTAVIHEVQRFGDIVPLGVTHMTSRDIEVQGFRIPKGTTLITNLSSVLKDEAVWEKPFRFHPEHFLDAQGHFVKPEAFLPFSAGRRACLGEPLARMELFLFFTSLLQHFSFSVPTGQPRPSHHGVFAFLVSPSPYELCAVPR
Protocol: as §1

in vitro = in vitro ADME, human; details: pH 7.4
Source text: Assay 3: Metabolic Stability of Test Compounds (HLM15′)
Sub-cellular tissue preparations are made according to Gorrod et al. (Xenobiotica, 5, pp. 453-462 (1975)) by centrifugal separation after mechanical homogenization of tissue. Human liver tissue is rinsed in ice-cold 0.1 M Tris-HCl (pH 7.4) buffer to wash excess blood. Tissue is then blotted dry, weighed and chopped coarsely using surgical scissors. The tissue pieces are homogenized in 3 volumes of ice-cold 0.1 M phosphate buffer (pH 7.4) using either a Potter-S (Braun, Italy) equipped with a Teflon pestle or a Sorvall Omni-Mix homogenizer, for 7×10 sec. In both cases, the vessel is kept in/on ice during the homogenization process. Tissue homogenates are centrifuged at 9000×g for 20 min at 4° C. using a Sorvall centrifuge or Beckman Ultracentrifuge. The resulting supernatant can be stored at −80° C. and is designated ‘S9’. The S9 fraction is centrifuged at 100,000×g for 60 min at 4° C. using a Beckman ultracentrifuge. The resulting supernatant is carefully aspirated, aliquoted and designated ‘cytosol’. The pellet is re-suspended in 0.1 M phosphate buffer (pH 7.4) in a final volume of 1 ml per 0.5 g original tissue weight and designated ‘microsomes’. All sub-cellular fractions are aliquoted, immediately frozen in liquid nitrogen and stored at −80° C. until use.
Heat-inactivated (10 min at 95° C.) ‘S9’ or microsomes were used for blank experiments. Reaction mixtures were incubated at 37° C. for 5 min, after which the reaction was started by the addition of 0.8 mM β-NADP. The reaction was incubated for 0 or 15 min. Next, the reaction was stopped by addition of 2 volumes of DMSO (or acetonitrile). Samples were centrifuged (10 min, 900×g) and analyzed by LC-MS.

CYP3A4 = molecular target: T4, CYP3A4 (Homo sapiens, UniProt P08684); assay: CYP450 inhibition, fluorescent substrate assay, CYP3A4; assay type: biochemical; details: 10 μM test compound; for inhibition at 10 min, 10 μM: E. coli expressed CYP3A4, pH 7.4, probe DBF (1 μM), substrate DBF 1 μM, read-out: 3A4-DBF % inh.
T4 construct: host or cells: E. coli
T4 sequence (P08684 whole entry): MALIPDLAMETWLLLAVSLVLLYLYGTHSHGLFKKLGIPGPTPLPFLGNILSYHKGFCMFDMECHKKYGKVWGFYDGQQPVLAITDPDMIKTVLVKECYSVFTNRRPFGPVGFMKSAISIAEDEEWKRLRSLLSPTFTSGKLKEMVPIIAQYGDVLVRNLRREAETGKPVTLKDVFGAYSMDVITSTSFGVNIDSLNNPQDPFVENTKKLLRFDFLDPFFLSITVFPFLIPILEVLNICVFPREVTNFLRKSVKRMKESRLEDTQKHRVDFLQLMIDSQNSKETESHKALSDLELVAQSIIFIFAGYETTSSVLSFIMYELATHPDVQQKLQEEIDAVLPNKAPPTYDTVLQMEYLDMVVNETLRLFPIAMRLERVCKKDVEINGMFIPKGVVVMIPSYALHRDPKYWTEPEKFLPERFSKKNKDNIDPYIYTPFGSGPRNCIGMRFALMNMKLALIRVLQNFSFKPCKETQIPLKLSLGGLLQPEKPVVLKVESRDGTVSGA
Protocol: as §1

[3] = E. coli expressed CYP1A2, pH 7.4, probe CEC (5 μM), 10 μM test compound
[4] = Human immunodeficiency virus 1, 72 h, wild-type HIV-1 IIIB, MT4 LTR-EGFP cells, three days after infection, pEC50 = -log10(EC50)
[5] = E. coli expressed CYP2C19, pH 7.4, probe CEC (25 μM), 10 μM test compound
[6] = E. coli expressed CYP2D6, pH 7.4, probe AMMC (3 μM), 10 μM test compound
[7] = E. coli expressed CYP3A4, pH 7.4, probe BFC (150 μM), substrate BFC 150 μM, read-out: 3A4-BFC % inh.
[8] = E. coli expressed CYP3A4, pH 7.4, probe BQ (60 μM), substrate BQ 60 μM, read-out: 3A4-BQ % inh.

Structure (SMILES) | inhibition at 15 min, 10 μM (CYP1A2; pH 7.4, 10 μM test compound) [%] | EC50 ([1]; Human immunodeficiency virus 1, IIIB, 72 h) [µM] | CC50 at 3 days [2] [µM] | inhibition at 30 min, 10 μM (CYP2C9; pH 7.4, 10 μM test compound, substrate MFC 200 μM, 30 min, read-out: 2C9-MFC % inh.) [%] | inhibition at 30 min, 10 μM (CYP2C19; pH 7.4, 10 μM test compound) [%] | inhibition at 45 min, 10 μM (CYP2D6; pH 7.4, 10 μM test compound) [%] | recovery at 15 min, 5 μM (in vitro; human liver microsomes 1 mg/ml, 5 μM test compound, 15 min, 37° C., read-out: % recovery HLM15) [%] | inhibition at 15 min, 10 μM (CYP1A2; [3]) [%] | EC50 [1, 4] [µM] | inhibition at 30 min, 10 μM (CYP2C19; [5]) [%] | inhibition at 45 min, 10 μM (CYP2D6; [6]) [%] | recovery at 15 min, 5 μM (in vitro; human) [%] | inhibition at 30 min, 10 μM (CYP2C9; pH 7.4) [%] | inhibition at 30 min, 10 μM (CYP3A4; [7]) [%] | inhibition at 30 min, 10 μM (CYP3A4; [8]) [%] | inhibition at 10 min, 10 μM (CYP3A4) [%]
CC(C)CN(C[C@@H](O)[C@H](Cc1ccccc1)NC(=O)OCc1cncs1)C(=O)c1ccc2c(c1)OCO2 [Compound C1] | 36 | 47.9 | 57.5 | 97 | 94 | 73 | 56 |  |  |  |  |  |  |  |  | 
CC(C)CN(C[C@@H](O)[C@H](Cc1ccccc1)NC(=O)OCc1cncs1)C(=O)c1ccc2occc2c1 [Compound C2] |  |  | 45.7 |  |  |  |  | 40 | 44.7 | 98 | 102 | 67 |  |  |  | 
Cc1ccc(C(=O)N(CC(C)C)C[C@@H](O)[C@H](Cc2ccccc2)NC(=O)OCc2cncs2)cc1 [Compound C3] |  |  | 70.8 |  |  |  |  | 20 | 52.5 | 90 | 49 | 54 | 99 | 95 | 85 | 97
CC(C)CN(C[C@@H](O)[C@H](Cc1ccccc1)NC(=O)OCc1cncs1)C(=O)c1ccc(C(F)(F)F)cc1 [Compound C4] |  |  | 39.8 |  |  |  |  | 62 | 31.6 | 92 | 79 | 57 | 99 | 95 | 85 | 99
COc1ccc(C(=O)N(CC(C)C)C[C@@H](O)[C@H](Cc2ccccc2)NC(=O)OCc2cncs2)cc1 [Compound C5] |  |  | 87.1 |  |  |  |  | 14 | 85.1 | 86 | 41 | 83 | 94 | 92 | 82 | 92
CC(C)CN(C[C@@H](O)[C@H](Cc1ccccc1)NC(=O)OCc1cncs1)C(=O)c1ccc(F)cc1 [Compound C6] |  |  | > 100 |  |  |  |  | 41 | 79.4 | 94 | 65 | 81 | 96 | 82 | 83 | 92
COc1cccc(C(=O)N(CC(C)C)C[C@@H](O)[C@H](Cc2ccccc2)NC(=O)OCc2cncs2)c1 [Compound C7] |  |  | 70.8 |  |  |  |  | 13 | 83.2 | 89 | 45 | 56 | 97 | 92 | 80 | 94
CC(C)CN(C[C@@H](O)[C@H](Cc1ccccc1)NC(=O)OCc1cncs1)C(=O)c1cccc(F)c1 [Compound C19] |  |  | > 100 |  |  |  |  | 43 |  | 77 | 53 | 69 | 93 |  |  | 
CC(C)(O)CN(C[C@@H](O)[C@H](Cc1ccccc1)NC(=O)OCc1cncs1)C(=O)c1ccncc1 [Compound C26] |  |  | > 100 |  |  |  |  | 0 |  | 35 | 30 | 92 | 82 | 95 | 77 | 84
